Reference: patent US20040067531A1, “Methods of modulating protein tyrosine kinase function with substituted indolinone compounds” (SUGEN, INC., priority 1997, published 2004)
Read-outs that look alike come from different tables or passages of the source.

What was measured:
[1] = test system: HUV-EC-C cells; VEGF; test: HUVEC-VEGF 3H-thymidine incorporation assay; format: cell-based, human
Method: The following protocol is used to measure a compound's activity against VEGF and aFGF, all of which are expressed by HUVEC cells.
1. […] After cells have detached from the flask, add an equal volume of assay medium and transfer to a 50 mL sterile centrifuge tube (Fisher Scientific; catalogue no. 05-539-6).
2. Wash the cells with about 35 mL assay medium in the 50 mL sterile centrifuge tube by adding the assay medium, centrifuge for 10 minutes at approximately 200×g, aspirate the supernatant, and resuspend with 35 mL D-PBS. Repeat the wash two more times with D-PBS, resuspend the cells in about 1 mL assay medium/15 cm^2 of tissue culture flask. Assay medium consists of F12K medium (Gibco BRL; catalogue no. 21127-014)+0.5% heat-inactivated fetal bovine serum. Count the cells with a Coulter Counter® (Coulter Electronics, Inc.) and add assay medium to the cells to obtain a concentration of 0.8-1.0×10^5 cells/mL.
3. Add cells to 96-well flat-bottom plates at 100 μL/well or 0.8-1.0×10^4 cells/well; incubate ˜24h at 37° C., 5% CO^2.
1. Make up two-fold drug titrations in separate 96-well plates, generally 50 μM on down to 0 μM. Use the same assay medium as mentioned in day 0, step 2 above. Titrations are made by adding […] of drug at 200 μM (4× the final well concentration) to the top well of a particular plate column. Since the stock drug concentration is usually 20 mM in DMSO, the 200 μM drug concentration contains 2% DMSO.
Therefore, diluent made up to 2% DMSO in assay medium (F12K+0.5% fetal bovine serum) is used as diluent for the drug titrations in order to dilute the drug but keep the DMSO concentration constant. Add this diluent to the remaining wells in the column at 60 μL/well. Take 60 μL from the 120 μL of 200 μM drug dilution in the top well of the column and mix with the 60 μL in the second well of the column. Take 60 μL from this well and mix with the 60 μL in the third well of the column, and so on until two-fold titrations are completed. When the next-to-the-last well is mixed, take 60 μL of the 120 μL in this well and discard it. Leave the last well with 60 μL of DMSO/media diluent as a non-drug-containing control. Make 9 columns of titrated drug, enough for triplicate wells each for 1) VEGF (obtained from Pepro Tech Inc., catalogue no. 100-200, 2) endothelial cell growth factor (ECGF) (also known as acidic fibroblast growth factor, or aFGF) (obtained from Boehringer Mannheim Biochemica, catalogue no. 1439 600); or, 3) human PDGF B/B (1276-956, Boehringer Mannheim, Germany) and assay media control. ECGF comes as a preparation with sodium heparin.
2. Transfer 50 μL/well of the drug dilutions to the 96-well assay plates containing the 0.8-1.0×10^4 cells/100 μL/well of the HUV-EC-C cells from day 0. and incubate ˜2 h at 37° C., 5% CO2.
3. […] As with the drugs, the growth factor concentrations are 4× the desired final concentration. Use the assay media from day 0 step 2 to make the concentrations of growth factors. Incubate approximately 24 hours at 37° C., 5% CO2. Each well will have 50 μL drug dilution, 50 μL growth factor or media, and 100 μL cells, =200 μL/well total. Thus the 4× concentrations of drugs and growth factors become 1× once everything has been added to the wells.
1. Add ^3H-thymidine (Amersham; catalogue no. TRK-686) at 1 μCi/well (10 μL/well Of 100 μCi/mi solution made up in RPMI media +10% heat-inactivated fetal bovine serum) and incubate μ24 h at 37° C., 5% CO2. RPMI was obtained from Gibco BRL, catalogue no. 11875-051.
1. Freeze plates overnight at […]
1. Thaw plates and harvest with a 96-well plate harvester (Tomtec Harvester 96®) onto filter mats (Wallac; catalogue no. 1205-401); read counts on a Wallac Betaplate™ liquid scintillation counter.
The IC50 values were measured for several of the compounds of the invention.

[2] = test system: EGF-induced BrdU incorporation; test: EGF-induced BrdU incorporation assay; format: cell-based; details: read-out: EGF-Induced BrdU Incorp. IC50
Method: PDGF-, FGF-, and EGF-Induced BRDU Incorporation Assay
(§1) 1. Cells were seeded at 8000 cells/well in DMEM, 10% CS, 2 mM Gln in a 96 well plate. Cells were incubated overnight at 37° C. in 5% CO2.
(§2) 2. After 24 hours, the cells were washed with PBS, and then were serum starved in serum free medium (0% CS DMEM with 0.1% BSA) for 24 hours.
(§3) 3. On day 3, ligand (PDGF=3.8 nM, prepared in DMEM with 0.1% BSA) and test compounds were added to the cells simultaneously. The negative control wells received serum free DMEM with 0.1% BSA only; the positive control cells received the ligand (PDGF) but no test compound. Test compounds were prepared in serum free DMEM with ligand in a 96 well plate, and serially diluted for 7 test concentrations.
(§4) 4. After 20 hours of ligand activation, diluted BrdU labeling reagent (1:100 in DMEM, 0.1% BSA) was added and the cells were incubated with BrdU (final concentration=10 μM) for 1.5 hours.
(§5) 5. After incubation with labeling reagent, the medium was removed by decanting and tapping the inverted plate on a paper towel. FixDenat solution was added (50 μL/well) and the plates were incubated at room temperature for 45 minutes on a plate shaker.
(§6) 6. The FixDenat solution was thoroughly removed by decanting and tapping the inverted plate on a paper towel. Milk was added (5% dehydrated milk in PBS, 200 μL/well) as a blocking solution and the plate was incubated for 30 minutes at room temperature on a plate shaker.
(§7) 7. The blocking solution was removed by decanting and the wells were washed once with PBS. Anti-BrdU-POD solution (1:100 dilution in PBS, 1% BSA) was added (100 μL/well), and the plate was incubated for 90 minutes at room temperature on a plate shaker.
(§8) 8. The antibody conjugate was thoroughly removed by decanting and rinsing the wells 5 times with PBS, and the space was dried by inverting and tapping on a paper towel.
(§9) 9. TMB substrate solution was added (100 μL/well) and incubated for 20 minutes at room temperature on a plate shaker until color development was sufficient for photometric detection.
(§10) 10. The absorbance of the samples were measured at 410 nm (in “dual wavelength” mode with a filter reading at 490 nm, as a reference wavelength) on a Dynatech ELISA plate reader.
(§11) The IC50 values were measured for several of the compounds of the invention. These values are depicted in Table 10.

[3] = test system: 3T3 cell line genetically engineered to express human PDGF-R; test: PDGF-induced BrdU incorporation assay; format: cell-based; details: 3T3 cells expressing human PDGF-R, read-out: PDGF-Induced BrdU Incorp. IC50
Method: (1) PDGF: human PDGF B/B; 1276-956, Boehringer Mannheim, Germany
(8) 3T3 cell line genetically engineered to express human PDGF-R.
as §1, §2, §3, §4, §5, §6, §7, §8, §9, §10, §11

O=C(O)CCc1c(C=C2C(=O)Nc3ccccc32)[nH]c2c1CCCC2 [IN-001, 3-[2-(2-Oxo-1,2-dihydro-indol-3-ylidenemethyl)-4,5,6,7-tetrahydro-1H-indol-3-yl]-propionic acid]
IC50 ([1]; Homo sapiens): 1.9 nM
IC50 [2]: 95.4 µM
IC50 ([3]; NIH3T3, PDGF 3.8 nM): 2.9 µM

O=C(O)CCc1c(C=C2C(=O)Nc3ccc(Cl)cc32)[nH]c2c1CCCC2 [IN-002, 3-[2-(5-Chloro-2-oxo-1,2-dihydro-indol-3-ylidenemethyl)-4,5.6,7-tetrahydro-1H-indol-3-yl]-propionic acid]
IC50 [1]: 0.04 nM
IC50 ([2]; EGF-induced): 83.5 µM
IC50 ([3]; PDGF […]): 1.1 µM

O=C(O)CCc1c(C=C2C(=O)Nc3ccc(Br)cc32)[nH]c2c1CCCC2 [IN-003, 3-[2-(5-Bromo-2-oxo-1,2-dihydro-indol-3-ylidenemethyl)-4,5,6,7-tetrahydro-1H-indol-3-yl]-propionic acid]
IC50 ([1]; Homo sapiens): 0.3 nM
IC50 [2]: 78.5 µM
IC50 ([3]; NIH3T3, PDGF 3.8 nM): 1.4 µM

Cc1cccc2c1C(=Cc1[nH]c3c(c1CCC(=O)O)CCCC3)C(=O)N2 [IN-004, 3-[2-(4-Methyl-2-oxo-1,2-dihydro-indol-3-ylidenemethyl)-4,5,6,7-tetrahydro-1H-indol-3-yl]-propionic acid]
IC50 ([1]; Homo sapiens): 0.94 nM
IC50 [2]: 52 µM
IC50 ([3]; NIH3T3, PDGF 3.8 nM): 13.5 µM

Cc1ccc2c(c1)C(=Cc1[nH]c3c(c1CCC(=O)O)CCCC3)C(=O)N2 [IN-005, 3-[2-(5-Methyl-2-oxo-1,2-dihydro-indol-3-ylidenemethyl)-4,5,6,7-tetrahydro-1H-indol-3-yl]-propionic acid]
IC50 ([1]; Homo sapiens): 1 nM
IC50 [2]: 61.5 µM
IC50 ([3]; NIH3T3, PDGF 3.8 nM): 14.2 µM

COc1ccc2c(c1)NC(=O)C2=Cc1[nH]c2c(c1CCC(=O)O)CCCC2 [IN-007, 3-[2-(6-Methoxy-2-oxo-1,2-dihydro-indol-3-ylidenemethyl)-4,5,6,7-tetrahydro-1H-indol-3-yl]-propionic acid]
IC50 ([1]; Homo sapiens): 20 nM
IC50 [2]: > 100 µM
IC50 ([3]; NIH3T3, PDGF 3.8 nM): 3 µM

CN(C)C(=O)CCc1c(C=C2C(=O)Nc3ccccc32)[nH]c2c1CCCC2 [IN-008, N,N-Dimethyl-3-[2-(2-oxo-1,2-dihydro-indol-3-ylidenemethyl)-4,5,6,7-tetrahydro-1H-indol-3-yl]-propionamide]
IC50 ([1]; Homo sapiens): < 3 nM
IC50 [2]: > 50 µM
IC50 ([3]; NIH3T3, PDGF 3.8 nM): 4.9 µM

CN(C)CCCc1c(C=C2C(=O)Nc3ccccc32)[nH]c2c1CCCC2 [IN-009, 3-[3-(3-Dimethylamino-propyl)-4,5,6,7-tetrahydro-1H-indol-2-ylmethylene]-1,3-dihydro-indol-2-one]
IC50 ([1]; Homo sapiens): 290 nM
IC50 [2]: > 50 µM
IC50 ([3]; NIH3T3, PDGF 3.8 nM): 4.2 µM

NC(=O)CCc1c(C=C2C(=O)Nc3ccccc32)[nH]c2c1CCCC2 [IN-010, 3-[2-(2-Oxo-1,2-dihydro-indol-3-ylidenemethyl)-4,5,6,7-tetrahydro-1H-indol-3-yl]-propionamide]
IC50 ([1]; Homo sapiens): < 30 nM
IC50 [2]: 95.4 µM
IC50 ([3]; NIH3T3, PDGF 3.8 nM): 3.5 µM

O=C1Nc2ccccc2C1=Cc1[nH]c2c(c1CCC(=O)N1CCOCC1)CCCC2 [IN-011, 3-[3-(3-Morpholin-4-yl-3-oxo-propyl)-4,5 6,7-tetrahydro-1H-indol-2-ylmethylene]-1,3-dihydro-indol-2-one]
IC50 ([1]; Homo sapiens): 220 nM
IC50 [2]: 83.5 µM
IC50 ([3]; NIH3T3, PDGF 3.8 nM): 8.6 µM

CNC(=O)CCc1c(C=C2C(=O)Nc3ccccc32)[nH]c2c1CCCC2 [IN-012, N-Methyl-3-[2-(2-oxo-1,2-dihydro-indol-3-ylidenemethyl)-4,5,6,7-tetrahydro-1H-indol-3-yl]-propionamide]
IC50 ([1]; Homo sapiens): < 30 nM
IC50 [2]: 78.5 µM
IC50 ([3]; NIH3T3, PDGF 3.8 nM): 3.9 µM

O=C(CCc1c(C=C2C(=O)Nc3ccccc32)[nH]c2c1CCCC2)NCCN1CCOCC1 [IN-013, N-(2-Morpholin-4-yl-ethyl)-3-[2-(2-oxo-1,2-dihydro-indol-3-ylidenemethyl)-4,5,6,7-tetrahydro-1H-indol-3-yl]-propionamide]
IC50 ([1]; Homo sapiens): < 30 nM
IC50 [2]: 52 µM
IC50 ([3]; NIH3T3, PDGF 3.8 nM): 5.2 µM

Cc1c[nH]c(C=C2C(=O)Nc3ccccc32)c1CCC(=O)O [IN-026, 3-[4-Methyl-2-(2-oxo-1,2-dihydro-indol-3-ylidenemethyl)-1H-pyrrol-3-yl]-propionic acid]
IC50 [2]: > 100 µM
IC50 ([3]; NIH3T3, PDGF 3.8 nM): 20 µM

Cc1c[nH]c(C=C2C(=O)Nc3ccc(Cl)cc32)c1CCC(=O)O [IN-027, 3-[2-(5-Chloro-2-oxo-1,2-dihydro-indol-3-ylidenemethyl)-4-methyl-1H-pyrrol-3-yl]-propionic acid]
IC50 ([1]; Homo sapiens): < 70 nM
IC50 [2]: > 50 µM

COc1ccc2c(c1)NC(=O)C2=Cc1[nH]cc(C)c1CCC(=O)O [IN-028, 3-[2-(6-Methoxy-2-oxo-1,2-dihydro-indol-3-ylidenemethyl)-4-methyl-1H-pyrrol-3-yl]-propionic acid]
IC50 ([1]; Homo sapiens): 620 nM
IC50 [2]: > 50 µM
IC50 ([3]; NIH3T3, PDGF 3.8 nM): 8.7 µM

Cc1c[nH]c(C=C2C(=O)Nc3cccc(C)c32)c1CCC(=O)O [IN-029, 3-[2-(4-Methyl-2-oxo-1,2-dihydro-indol-3-ylidenemethyl)-4-methyl-1H-pyrrol-3-yl]-propionic acid]
IC50 ([1]; Homo sapiens): < 70 nM
IC50 ([2]; EGF-induced): 43.5 µM
IC50 ([3]; NIH3T3, PDGF 3.8 nM): 24.8 µM

Cc1c[nH]c(C=C2C(=O)Nc3cc(Cl)ccc32)c1CCC(=O)O [IN-030, 3-[2-(6-Chloro-2-oxo-1,2-dihydro-indol-3-ylidenemethyl)-4-methyl-1H-pyrrol-3-yl]-propionic acid]
IC50 ([1]; Homo sapiens): 16 nM
IC50 [2]: > 50 µM
IC50 ([3]; NIH3T3, PDGF 3.8 nM): 7.9 µM
